Data taken from the NIST ThermoML archive (doi:10.1016/j.tca.2013.08.031).
Several values for one entry are separate records, joined by “and”; a condition that tells them apart may be missing. Equal entries are not always repeated. ± gives the expanded uncertainty stated by the source.

Test: molar heat capacity at constant volume
Settings: Fluid (supercritical or subcritical phases), Vacuum adiabatic calorimetry

CCC(C)O (stereo unspecified) [butan-2-ol]
Settings	molar heat capacity at constant volume
375.31 K, Mass density=735.98 kg/m3	219.47 ± 2.2 J/K/mol
375.53 K, Mass density=735.98 kg/m3	217.99 ± 2.2 J/K/mol
375.75 K, Mass density=735.98 kg/m3	218.29 ± 2.2 J/K/mol
375.97 K, Mass density=735.98 kg/m3	219.25 ± 2.2 J/K/mol
376.19 K, Mass density=735.98 kg/m3	217.99 ± 2.2 J/K/mol
376.42 K, Mass density=735.98 kg/m3	219.47 ± 2.2 J/K/mol
376.64 K, Mass density=735.98 kg/m3	218.29 ± 2.2 J/K/mol
376.86 K, Mass density=735.98 kg/m3	219.47 ± 2.2 J/K/mol
377.08 K, Mass density=735.98 kg/m3	217.77 ± 2.2 J/K/mol
377.3 K, Mass density=735.98 kg/m3	219.55 ± 2.2 J/K/mol
377.52 K, Mass density=735.98 kg/m3	219.33 ± 2.2 J/K/mol
407.02 K, Mass density=683.53 kg/m3	273.88 ± 2.7 J/K/mol
407.23 K, Mass density=683.53 kg/m3	278.47 ± 2.8 J/K/mol
407.44 K, Mass density=683.53 kg/m3	275.51 ± 2.7 J/K/mol
407.65 K, Mass density=683.53 kg/m3	274.18 ± 2.7 J/K/mol
407.86 K, Mass density=683.53 kg/m3	273.95 ± 2.8 J/K/mol
408.07 K, Mass density=683.53 kg/m3	279.22 ± 2.8 J/K/mol
408.28 K, Mass density=683.53 kg/m3	277.29 ± 2.8 J/K/mol
408.49 K, Mass density=683.53 kg/m3	260.39 ± 2.7 J/K/mol
408.7 K, Mass density=683.53 kg/m3	246.01 ± 2.5 J/K/mol
408.91 K, Mass density=683.53 kg/m3	240.23 ± 2.5 J/K/mol
409.12 K, Mass density=683.53 kg/m3	236.6 ± 2.4 J/K/mol
409.33 K, Mass density=683.53 kg/m3	234.08 ± 2.4 J/K/mol
409.54 K, Mass density=683.53 kg/m3	232.22 ± 2.4 J/K/mol
409.75 K, Mass density=683.53 kg/m3	224.59 ± 2.3 J/K/mol
409.96 K, Mass density=683.53 kg/m3	223.4 ± 2.3 J/K/mol
410.17 K, Mass density=683.53 kg/m3	224.22 ± 2.3 J/K/mol
410.38 K, Mass density=683.53 kg/m3	222.66 ± 2.2 J/K/mol
413.11 K, Mass density=648.53 kg/m3	272.62 ± 2.7 J/K/mol
413.31 K, Mass density=648.53 kg/m3	273.21 ± 2.7 J/K/mol
413.52 K, Mass density=648.53 kg/m3	273.66 ± 2.7 J/K/mol
413.73 K, Mass density=648.53 kg/m3	273.51 ± 2.7 J/K/mol
413.94 K, Mass density=648.53 kg/m3	272.62 ± 2.7 J/K/mol
414.15 K, Mass density=648.53 kg/m3	272.84 ± 2.7 J/K/mol
414.78 K, Mass density=683.53 kg/m3	226.66 ± 2.3 J/K/mol
414.99 K, Mass density=683.53 kg/m3	226.89 ± 2.3 J/K/mol
415.19 K, Mass density=683.53 kg/m3	227.55 ± 2.3 J/K/mol and 227.85 ± 2.3 J/K/mol
419.77 K, Mass density=683.53 kg/m3	228.67 ± 2.3 J/K/mol
419.97 K, Mass density=683.53 kg/m3	227.55 ± 2.3 J/K/mol
420.6 K, Mass density=683.53 kg/m3	230.59 ± 2.3 J/K/mol
421.42 K, Mass density=683.53 kg/m3	231.85 ± 2.4 J/K/mol
421.63 K, Mass density=683.53 kg/m3	230 ± 2.3 J/K/mol
422.25 K, Mass density=683.53 kg/m3	230.81 ± 2.3 J/K/mol
422.46 K, Mass density=683.53 kg/m3	231.11 ± 2.3 J/K/mol
422.66 K, Mass density=683.53 kg/m3	231.85 ± 2.4 J/K/mol
422.87 K, Mass density=683.53 kg/m3	231.33 ± 2.3 J/K/mol
423.08 K, Mass density=683.53 kg/m3	231.41 ± 2.3 J/K/mol
423.28 K, Mass density=683.53 kg/m3	230.81 ± 2.3 J/K/mol
423.49 K, Mass density=683.53 kg/m3	231.48 ± 2.4 J/K/mol
423.69 K, Mass density=683.53 kg/m3	231.93 ± 2.4 J/K/mol
424.31 K, Mass density=683.53 kg/m3	231.11 ± 2.3 J/K/mol
424.52 K, Mass density=683.53 kg/m3	230.52 ± 2.3 J/K/mol
424.72 K, Mass density=683.53 kg/m3	230.81 ± 2.3 J/K/mol
424.93 K, Mass density=683.53 kg/m3	230.44 ± 2.3 J/K/mol
425.14 K, Mass density=683.53 kg/m3	231.33 ± 2.3 J/K/mol
425.75 K, Mass density=683.53 kg/m3	231.19 ± 2.3 J/K/mol
425.96 K, Mass density=683.53 kg/m3	230.89 ± 2.3 J/K/mol and 228.44 ± 2.3 J/K/mol
426.16 K, Mass density=683.53 kg/m3	227.48 ± 2.3 J/K/mol
426.37 K, Mass density=683.53 kg/m3	226.74 ± 2.3 J/K/mol
426.58 K, Mass density=683.53 kg/m3	227.41 ± 2.3 J/K/mol
426.78 K, Mass density=683.53 kg/m3	227.03 ± 2.3 J/K/mol
426.99 K, Mass density=683.53 kg/m3	227.48 ± 2.3 J/K/mol
431.29 K, Mass density=648.53 kg/m3	278.03 ± 2.8 J/K/mol
431.49 K, Mass density=648.53 kg/m3	279.14 ± 2.8 J/K/mol
431.7 K, Mass density=648.53 kg/m3	277.66 ± 2.8 J/K/mol
431.9 K, Mass density=648.53 kg/m3	277.88 ± 2.8 J/K/mol
432.31 K, Mass density=648.53 kg/m3	278.77 ± 2.8 J/K/mol
432.51 K, Mass density=648.53 kg/m3	277.14 ± 2.8 J/K/mol
432.72 K, Mass density=648.53 kg/m3	277.44 ± 2.9 J/K/mol
432.92 K, Mass density=648.53 kg/m3	279.22 ± 2.9 J/K/mol
432.92 K, Mass density=683.53 kg/m3	227.18 ± 2.3 J/K/mol
433.12 K, Mass density=648.53 kg/m3	278.55 ± 2.9 J/K/mol
433.12 K, Mass density=683.53 kg/m3	228 ± 2.3 J/K/mol
433.33 K, Mass density=648.53 kg/m3	272.99 ± 2.8 J/K/mol
433.33 K, Mass density=683.53 kg/m3	227.63 ± 2.3 J/K/mol
433.53 K, Mass density=648.53 kg/m3	225.03 ± 2.4 J/K/mol
433.53 K, Mass density=683.53 kg/m3	227.78 ± 2.3 J/K/mol
433.73 K, Mass density=648.53 kg/m3	224.81 ± 2.4 J/K/mol
433.73 K, Mass density=683.53 kg/m3	228.29 ± 2.3 J/K/mol
433.94 K, Mass density=648.53 kg/m3	222.29 ± 2.4 J/K/mol
434.14 K, Mass density=648.53 kg/m3	223.48 ± 2.4 J/K/mol
434.55 K, Mass density=648.53 kg/m3	221.92 ± 2.2 J/K/mol
434.75 K, Mass density=648.53 kg/m3	221.25 ± 2.2 J/K/mol
434.96 K, Mass density=648.53 kg/m3	222.96 ± 2.2 J/K/mol
435.16 K, Mass density=648.53 kg/m3	222.74 ± 2.2 J/K/mol
435.36 K, Mass density=648.53 kg/m3	222.88 ± 2.2 J/K/mol
449.87 K, Mass density=598.18 kg/m3	278.18 ± 2.8 J/K/mol
450.07 K, Mass density=598.18 kg/m3	277.14 ± 2.8 J/K/mol
450.27 K, Mass density=598.18 kg/m3	279.22 ± 2.8 J/K/mol
450.47 K, Mass density=598.18 kg/m3	276.18 ± 2.8 J/K/mol
450.66 K, Mass density=598.18 kg/m3	277.36 ± 2.8 J/K/mol
457.62 K, Mass density=648.53 kg/m3	222.14 ± 2.2 J/K/mol
457.82 K, Mass density=598.18 kg/m3	274.62 ± 2.7 J/K/mol
457.82 K, Mass density=648.53 kg/m3	221.85 ± 2.2 J/K/mol
458.02 K, Mass density=598.18 kg/m3	274.4 ± 2.7 J/K/mol
458.02 K, Mass density=648.53 kg/m3	222.88 ± 2.2 J/K/mol
458.22 K, Mass density=598.18 kg/m3	277.66 ± 2.8 J/K/mol
458.22 K, Mass density=648.53 kg/m3	224.51 ± 2.3 J/K/mol
458.41 K, Mass density=598.18 kg/m3	277.29 ± 2.8 J/K/mol
458.41 K, Mass density=648.53 kg/m3	223.62 ± 2.2 J/K/mol
458.61 K, Mass density=598.18 kg/m3	278.85 ± 2.8 J/K/mol
458.81 K, Mass density=598.18 kg/m3	277.59 ± 2.8 J/K/mol
459.01 K, Mass density=598.18 kg/m3	279.44 ± 2.8 J/K/mol
462.16 K, Mass density=598.18 kg/m3	275.88 ± 2.8 J/K/mol
462.36 K, Mass density=598.18 kg/m3	274.69 ± 2.7 J/K/mol
462.56 K, Mass density=598.18 kg/m3	273.58 ± 2.7 J/K/mol
